Consider one substance from US9023987B2, “Cell-permeable peptide” (Seoul National University R&DB Foundation, priority 2010, dated 2015).

Data set [1] deals with human mesenchymal stem cells (hMSC). Put plainly: Cell differentiation ability by calcein staining. It is filed as cell-based. The note with it: hard tissue-forming medium with calcein, 14 days, compared with PBS; FIG. 4A g-i. Further details: dose or concentration left out as unconfirmed. The procedure:
In order to confirm cell differentiation ability of the cell permeable peptide-bone differentiation inducing sequence conjugate, human mesenchymal stem cells (hMSC) were seeded in each well of a 4-well chamber slide at 5×10^3/well, and then incubated in a general medium for 20 hours (overnight) for cell stabilization. The cells were treated with the cell permeable peptide-bone differentiation inducing sequence conjugate synthesized from Example 1 and the bone differentiation inducing sequence of Comparative Example 2 of […] for each, and then incubated in a hard tissue forming medium containing calcein (calcium staining, green) for 14 days. The composition of the hard tissue-forming medium consisted of an MSCBM medium containing 15% FBS (fetal bovine serum), […] of L-ascorbic acid, 10^−7 M dexamethasone, 1% antibiotic-antimycotic solution, and 10 mM beta-glycerol phosphate. After completion of the incubation, the medium was removed, and then the cells were washed with phosphate buffer solution (PBS) twice. The cells washed with the phosphate buffer solution were fixed with 10% NBF (neutral buffered formalin), and then the nucleus was stained (Hoechst 33342, blue). […]

For data set [2], the system named is Smad1/5/8 phosphorylation, RUNX2. Description: Western blot of signal transduction proteins in cytoplasmic and nuclear fractions. The data set is classed as cell-based, human. The note with it: 10 μm, 1.5 hours, hMSC, compared with PBS; FIG. 4D. As for the experimental part:
In order to confirm cell differentiation ability of the cell permeable peptide-bone differentiation inducing sequence conjugate, using proteins serving an important role in signal transduction pathways in the cytoplasmic fraction and the nuclear fraction, human mesenchymal stem cells (hMSC) were seeded in each well of a 10 cm-dish at 1×10^6/well, and then incubated in a general medium for 20 hours (overnight) for cell stabilization. After 20 hours of the incubation, the cells were treated with the cell permeable peptide-bone differentiation inducing sequence conjugate and the bone differentiation inducing sequence of Comparative Example 2 of 10 μm for each for 1.5 hours.
After that, in order to compare the expression degree of intercellular protein, in each of the cells treated with the cell permeable peptide-bone differentiation inducing sequence conjugate of Example 1 and the bone differentiation inducing sequence of Comparative Example 2, cytoplasm and nucleus were separated using NE-PER nuclear and cytoplasmic extraction reagents according to the manufacturer's instructions (Pierce, USA). The protein in the hMSC lysis solution containing the separated cytoplasm and nucleus was determined by Bradford's assay, and then subjected to electrophoresis using 10% polyacrylamide gel at 120 volts for 4 hours. […]
For orientation: Immunoblotting shows a protein as a band on a membrane.

The test system of data set [3] is human mesenchymal stem cells (hMSC). Put plainly: Cytotoxicity by MTT assay. It is filed as cell-based. Further details: dose or concentration left out as unconfirmed. The following applies: 24, 48, and 72 hours, FIG. 5. The procedure: In order to confirm whether or not cell proliferation is affected by potential toxicity when the cell permeable peptide-bone differentiation inducing sequence conjugate and control domains are cultured with hMSC, a 3-[4,5-dimethylthiazo-2-yl]-2,5-diphenyl tetrazolium bromide thiazolyl blue (MTT) assay method was used.
The MTT assay method is a method for measuring cytotoxicity by measuring absorbance of formazan produced as mitochondrial dehydrogenases in alive and metabolically active cells reduces MTT to indicate the absorbance as a percentage based on the control group. In this case, the measured absorbance reflects a concentration of the alive and metabolically active cells. 2,3,5-triphenyl tetrazolium chloride (TTC) is reduced to formazan in live cells. The formazan is insoluble purple color, and a respiration rate may be measured by a degree of color. The absorbance of formazan is maximal at 540 nm, and the absorbance measured at this wavelength reflects the concentration of the alive and metabolically active cells. Since a linear relationship between the absorbance and the concentration of the cells is not established when a concentration of cells in well to be measured is excessively high or low, a process of determining an optimal concentration of the cells was performed. […]
Background: Tetrazolium assays rely on reduction of a dye to a coloured formazan, in cell work by metabolically active cells.

Data set [4] has the same test system. Put plainly: Cell differentiation ability by Alizarin red S staining. The data set is classed as cell-based. The note with it: 10 mM, hard tissue-forming medium, 14 days, compared with PBS; FIG. 4A a-c. As for the experimental part: In order to confirm cell differentiation ability of the cell permeable peptide-bone differentiation inducing sequence conjugate by the amount of phosphorylated calcium, human mesenchymal stem cells (hMSC) were seeded in a 24-well plate at 1×10^3/well, and then treated with the cell permeable peptide-bone differentiation inducing sequence conjugate synthesized from Example 1 and the bone differentiation inducing sequence of Comparative Example 2 of […] for each, and then incubated in a hard tissue-forming medium for 14 days. The hard tissue-forming medium contained an MSCBM medium containing 15% FBS (fetal bovine serum), […] of L-ascorbic acid, 10^−7 M dexamethasone, 1% antibiotic-antimycotic solution, and 10 mM beta-glycerol phosphate. After completion of the incubation, the medium was removed, and then the cells were washed with phosphate buffer solution (PBS) twice. The cells were fixed using 90% ethanol at 4° C. for 15 minutes, followed by washing with distilled water twice, and then stained with 2% Alizarin red S Solution (pH 4.2; Alizarin red S powder, Junsei, JAPAN).

On to “NH2-GAPPPADSAP-SSRKKNPNCRRH-C-COONH2 (H-GAPPPADSAPSSRKKNPNCRRHC-NH2; cysteine pairing not given here) [Example 1]”, for which, in data set [1], the “calcein staining degree of phosphorylated calcium” value was “relatively strong staining degree of phosphorylated calcium”. Besides, in data set [2], the “RUNX2 in the nucleus (western blot)” value is “noticeably increased RUNX2” and the “phosphorylation of Smad1/5/8 (western blot)” value is on record as “exhibited Smad 1/5/8 phosphorylation”. Also, the “cytotoxicity (MTT, cell proliferation ability compared with PBS)” value in data set [3] is “did not exhibit cytotoxicity”. The “differentiation into osteoblast, Alizarin red S staining of phosphorylated calcium” value in data set [4] was “relatively strong staining degree of phosphorylated calcium”.
